Reference: patent US10780101B2, “Amide derivatives of squalamine for the treatment of infections” (VIRBAC, priority 2016, dated 2020)
≈ marks a conversion by molar mass, not a printed value. Like-named read-outs stand apart in the source and are kept apart here.

Experiments:
[1] = system: S. aureus Human ATCC 25923; assay: MIC determination, S. aureus human ATCC 25923; assay type: cell-based; settings: Staphylococcus aureus, ATCC25923; Gram-positive; Mueller-Hinton medium, 24 h at 37° C.
Procedure, shortened: (§1)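 MH broth, inoculum OD 0.01/well, 0.5 cascade dilution of test compound (stock 5 mg/mL, DMSO/MeOH 50:50). 37 °C, 24 h, humid. OD620 read → MIC. n=2.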

[2] = system: S. aureus Animal (340); assay: MIC determination, S. aureus animal (340); assay type: cell-based; settings: Staphylococcus aureus; Gram-positive; Mueller-Hinton medium, 24 h at 37° C.
Procedure, shortened: as §1

[3] = system: E. faecalis Human ATCC 29212; assay: MIC determination, E. faecalis human ATCC 29212; assay type: cell-based; settings: Enterococcus faecalis, ATCC29212; Gram-positive; Mueller-Hinton medium, 24 h at 37° C.
Procedure, shortened: as §1

[4] = system: E. coli Human ATCC 28922; assay: MIC determination, E. coli human ATCC 28922; assay type: cell-based; settings: Escherichia coli, ATCC28922; Gram-negative; Mueller-Hinton medium, 24 h at 37° C.
Procedure, shortened: as §1

[5] = system: P. aeruginosa Human ATCC 27853; assay: MIC determination, P. aeruginosa human ATCC 27853; assay type: cell-based; settings: Pseudomonas aeruginosa, ATCC27853; Gram-negative; Mueller-Hinton medium, 24 h at 37° C.
Procedure, shortened: as §1

[6] = system: P. aeruginosa Animal (1051575); assay: MIC determination, P. aeruginosa animal (1051575); assay type: cell-based; settings: Pseudomonas aeruginosa; Gram-negative; Mueller-Hinton medium, 24 h at 37° C.
Procedure, shortened: as §1

[7] = system: CHO-K1 cells; assay: WST1 cytotoxicity test on CHO-K1 cells; assay type: cell-based, Chinese hamster; settings: Cricetulus griseus
Procedure, shortened: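 CHO-K1 cells pre-grown 24 h, then exposed to increasing compound concentrations in duplicate for 24 h at 37° C, 5% CO2. Viability read after 20 min with 10% WST-1 in PBS at 450 nm; IC50 from nonlinear regression as concentration cutting viability 50%.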

[8] = system: P. aeruginosa (1051575); assay: Potentiation of doxycycline activity (combination MIC); assay type: cell-based, Pseudomonas aeruginosa; settings: for synergism when administered with doxycycline: doxycycline at 2 μg/mL; for MIC - P. aeruginosa (1051575): content of compound of formula (I) to restore the doxycycline activity (at 2 μg/mL): in presence of doxycycline 2 μg/mL, 24 hours at 37° C.
[9] = system: P. aeruginosa (1051575); assay: Potentiation of ampicillin activity (combination MIC); assay type: cell-based, Pseudomonas aeruginosa; settings: ampicillin 4 μg/mL; concentration of compound required to restore antibiotic activity
Procedure: This method requires the use of a 96-well plate: 100 μL of a liquid culture medium are placed in each well and then seeded with the microbial suspension prepared previously. The required volume to be seeded is calculated for an OD of 0.01, which corresponds to about 5×10^6 bacteria in each well. In this plate, the first line corresponds to a negative control (200 μL of sterile culture medium in each well), the second line corresponds to a positive control (100 μL of sterile culture medium+100 μL of the bacterial suspension), and the third line contains 192 μL of culture medium; 8 μL of compound of formula (I) to be tested are placed in each well. Thereafter, a cascade dilution is performed from this line. […] 92 μL of bacterial suspension are then added to lines 3 to 8. The results are read (the determination of the MIC (2 μg/mL of doxycycline) in the presence of X g/mL of compound of formula (I)) after 24 hours of incubation at 37° C. under a humid atmosphere. After 24 hours of incubation at 37° C., 40 μL of nitro tetrazolium iodide are added to each well to reveal the presence of live bacteria by staining the medium pink.
The procedure is identical to that indicated in Example 5 above. […]
The results are given in table V. They indicate the concentration of compound of formula (I) required to be able to restore the activity of the antibiotic under consideration.

[10] = system: P. aeruginosa (1051575); assay: Potentiation of chloramphenicol activity (combination MIC); assay type: cell-based, Pseudomonas aeruginosa; settings: concentration of compound required to restore antibiotic activity
[11] = CHO-K1, 24 h, read-out: IC50 (μg/mL) CHO
[12] = CHO-K1, read-out: IC50 (μg/mL) CHO

Row | Structure (SMILES) | MIC [1] [µg/mL] | MIC [2] [µg/mL] | MIC [3] [µg/mL] | MIC [4] [µg/mL] | MIC [5] [µg/mL] | MIC [6] [µg/mL] | IC50 [7, 11] [µg/mL] | synergism when administered with doxycycline [8] | MIC - P. aeruginosa (1051575): content of compound of formula (I) to restore the doxycycline activity (at 2 μg/mL) [8] [µg/mL] | MIC P. aeruginosa (1051575) compound + ampicillin [9] [µg/mL] | MIC P. aeruginosa (1051575) compound + chloramphenicol ([10]; chloramphenicol 4 μg/mL) [µg/mL] | IC50 [7, 12] [µg/mL] | MIC P. aeruginosa (1051575) compound + chloramphenicol ([10]; chloramphenicol 2 μg/mL) [µg/mL]
1 | CC(C)NC(=O)CC[C@@H](C)[C@H]1CCC2C3CCC4C[C@@H](NCCCN(C)CCCN)CC[C@]4(C)C3C[C@H](O)[C@@]21C (stereo partly shown) [(25)] | 7 (≈ 12.5 µM) | 14 (≈ 25 µM) | 14 (≈ 25 µM) | 14 (≈ 25 µM) | 28 (≈ 49.9 µM) | 28 (≈ 49.9 µM) | 48 (≈ 85.6 µM) | noteworthy synergism | 2 | 56 | 2 | – | –
2 | CC(C)NC(=O)CC[C@@H](C)[C@H]1CCC2C3C(CC[C@@]21C)[C@@]1(C)CC[C@H](NCCCNCCCN)CC1C[C@@H]3O (stereo partly drawn) [(15), 3β-norspermidino-N-isopropylursodeoxycholamide] | 28 (≈ 51.2 µM) | 56 (≈ 102 µM) | 112 (≈ 205 µM) | 56 (≈ 102 µM) | 56 (≈ 102 µM) | 112 (≈ 205 µM) | 140 (≈ 256 µM) | – | 1 | 110 | 2 | 85 (≈ 155 µM) | 7
3 | CC(C)NC(=O)CC[C@@H](C)[C@H]1CCC2C3C(CC[C@@]21C)[C@@]1(C)CC[C@H](NCCCNCCCNCCCN)CC1C[C@H]3O (stereo partly drawn) [(7), 3β-norspermino-N-isopropylchenodeoxycholamide] | 4 (≈ 6.62 µM) | 2 (≈ 3.31 µM) | 4 (≈ 6.62 µM) | 15 (≈ 24.8 µM) | 30 (≈ 49.7 µM) | 15 (≈ 24.8 µM) | 55 (≈ 91.1 µM) | – | 1 | 15 | 2 | – | –
4 | CC(C)NC(=O)CC[C@@H](C)[C@H]1CCC2C3C(CC[C@@]21C)[C@@]1(C)CC[C@H](NCCCNCCCCNCCCN)CC1C[C@@H]3O (stereo partly drawn) [Compound (35), 3β-spermino-N-isopropylursodeoxycholamide] | 16 (≈ 25.9 µM) | 16 (≈ 25.9 µM) | 64 (≈ 104 µM) | 64 (≈ 104 µM) | 32 (≈ 51.8 µM) | 64 (≈ 104 µM) | 55 (≈ 89 µM) | – | 2 | 64 | 2 | 55 (≈ 89 µM) | –
5 | CC(C)NC(=O)CC[C@@H](C)[C@H]1CCC2C3CCC4C[C@@H](NCCCNCCCN)CC[C@]4(C)C3C[C@H](O)[C@@]21C (stereo partly drawn) [Compound (2), 3β-norspermidino-N-isopropyldeoxycholamide] | 4 (≈ 7.31 µM) | 2 (≈ 3.66 µM) | 14 (≈ 25.6 µM) | 14 (≈ 25.6 µM) | 28 (≈ 51.2 µM) | 14 (≈ 25.6 µM) | 35 (≈ 64 µM) | noteworthy synergism | 0.9 | 28 | 0.9 | – | 0.9
6 | CC(C)NC(=O)CC[C@@H](C)[C@H]1CCC2C3C(C[C@H](O)[C@@]21C)[C@@]1(C)CC[C@H](NCCCNCCCN)CC1C[C@H]3O (stereo partly drawn) [(5), 3β-norspermidino-N-isopropylcholamide] | 8 (≈ 14.2 µM) | 16 (≈ 28.4 µM) | 16 (≈ 28.4 µM) | 16 (≈ 28.4 µM) | 64 (≈ 114 µM) | 64 (≈ 114 µM) | 70 (≈ 124 µM) | – | 1 | 64 | 2 | 70 (≈ 124 µM) | 4
7 | CC(C)NC(=O)CC[C@@H](C)[C@H]1CCC2C3C(CC[C@@]21C)[C@@]1(C)CC[C@H](NCCCNCCCN)CC1C[C@H]3O (stereo partly drawn) [(8), 3β-norspermidino-N-isopropylchenodeoxycholamide] | 6 (≈ 11 µM) | 3 (≈ 5.49 µM) | 8 (≈ 14.6 µM) | 14 (≈ 25.6 µM) | 54 (≈ 98.7 µM) | 27 (≈ 49.4 µM) | 50 (≈ 91.4 µM) | – | 2 | 27 | 2 | 50 (≈ 91.4 µM) | –
8 | CC(C)NC(=O)CC[C@@H](C)[C@H]1CCC2C3C(CC[C@@]21C)[C@@]1(C)CC[C@H](NCCCN(C)CCCN)CC1C[C@H]3O (stereo partly drawn) [(27), 3β-(bis(3-aminopropyl)methylamine)-N-isopropylchenodeoxycholamide] | 8 (≈ 14.3 µM) | 8 (≈ 14.3 µM) | 16 (≈ 28.5 µM) | 16 (≈ 28.5 µM) | 32 (≈ 57 µM) | 128 (≈ 228 µM) | 100 (≈ 178 µM) | – | 2 | 64 | 1 | 100 (≈ 178 µM) | 4
